For this assay, the target named is SARS-CoV-2 3CLpro (Severe acute respiratory syndrome coronavirus 2, UniProt P0DTD1). Kind of assay: biochemical. The note with it: for inhibition at 5 µM: 4 h. Also on record: Replicate_1 / Replicate_2 / mean / mean (LOPAC_screen_w_protease): unit not given here. The assay is classed as biochemical.
The mark [1] stands for this setting: sheet LOPAC_screen_w_protease, LOPAC1280 at 5 µM, mean of two replicates, read-out: mean.
The mark [2] stands for this setting: sheet LOPAC_screen_w_protease, LOPAC1280 at 5 µM, replicate 1, read-out: Replicate_1.
Where [3] appears, read: sheet LOPAC_screen_w_protease, LOPAC1280 at 5 µM, replicate 2, read-out: Replicate_2.
The mark [4] stands for this setting: LOPAC1280 primary screen with protease, 5 µM compound, replicate 1.
[5] abbreviates: LOPAC1280 primary screen with protease, 5 µM compound, replicate 2.
[6] abbreviates: sheet LOPAC_screen_w_protease, LOPAC1280 primary screen with protease, 5 µM compound, mean of the two replicates.
The mark [7] stands for this setting: sheet LOPAC_screen_w_protease, LOPAC1280 primary screen with protease, 5 µM compound, replicate 1.
Where [8] appears, read: sheet LOPAC_screen_w_protease, LOPAC1280 primary screen with protease, 5 µM compound, replicate 2.
Setting [9] is: sheet LOPAC_screen_w_protease, LOPAC1280 at 5 µM, mean of two replicates.
Setting [10] is: sheet LOPAC_screen_w_protease, LOPAC1280 at 5 µM, replicate 1.
Where [11] appears, read: sheet LOPAC_screen_w_protease, LOPAC1280 at 5 µM, replicate 2.

Structures can show the parent of a compound that is named as a salt. Where two headings read alike, the source gives them in different places.

For `COc1cc(C=C(C#N)C#N)cc(O)c1O` [Tyrphostin AG 34], the mean (sheet LOPAC_screen_w_protease, primary screen of LOPAC1280 at 5 µM with protease, mean of the two replicates) is 3.625. The molecule further registered a Replicate_1 (sheet LOPAC_screen_w_protease, primary screen of LOPAC1280 at 5 µM with protease, replicate 1) of 3.8503. This molecule returned a Replicate_2 (sheet LOPAC_screen_w_protease, primary screen of LOPAC1280 at 5 µM with protease, replicate 2) of 3.4006.
Take `COc1cc2ncnc(Nc3cccc(Cl)c3)c2cc1OC` [Tyrphostin AG 1478]: the inhibition at 5 µM amounted to 1.16% under setting [1], 1.39% under setting [2] and 0.935% under setting [3].
In the case of `CC(C)(C=O)Cc1cc(C(C)(C)C)c(O)c(C(C)(C)C)c1` [CGP-13501], the “mean (LOPAC_screen_w_protease)” value (LOPAC1280 primary screen with protease, 5 µM compound, mean of two replicates) was 1.552. Under setting [4], the “Replicate_1 (LOPAC_screen_w_protease)” value is listed as -0.1889. In addition, under setting [5], the “Replicate_2 (LOPAC_screen_w_protease)” value is given as 3.292.
Consider `O=S1(=O)N(CCN2CC=C(c3c[nH]c4cc(F)ccc34)CC2)c2cccc3c2N1CCC3` [LY-367,265], for which the mean (sheet LOPAC_screen_w_protease, primary screen with protease, mean of two replicates) came out at 2.318. Where the note is “sheet LOPAC_screen_w_protease, primary screen with protease, replicate 1”, this molecule yielded a Replicate_1 of 0.8121. In addition, the Replicate_2 (sheet LOPAC_screen_w_protease, primary screen with protease, replicate 2) came out at 3.823.
In the case of `COc1ccc(/C=C/C(=O)Nc2ccccc2C(=O)O)cc1OC` [Tranilast], the inhibition at 5 µM was 0.566% (read-out: Replicate_1), -2.13% (read-out: Replicate_2) and -0.784% (read-out: mean).
For `Cc1cccc(C)c1N=C1NCCCS1` [Xylazine hydrochloride], in that order: 0.366%, 2.25% and 1.31%.
On to `O=C(O)CNC(=O)C(CS)Cc1ccccc1` (racemic) [DL-Thiorphan], for which the inhibition at 5 µM (sheet LOPAC_screen_w_protease, primary screen with protease, 5 µM, mean of two replicates, read-out: mean) was found to be 0.357%; the inhibition at 5 µM (sheet LOPAC_screen_w_protease, primary screen with protease, 5 µM, replicate 1, read-out: Replicate_1) is -0.479%; the inhibition at 5 µM (sheet LOPAC_screen_w_protease, primary screen with protease, 5 µM, replicate 2, read-out: Replicate_2) is 1.19%.
As to `Cl.Cl.Fc1ccc(C(OCCN2CCN(CCCc3ccccc3)CC2)c2ccc(F)cc2)cc1` [GBR-12909 dihydrochloride], the mean under setting [6] was found to be 4.322. This molecule came in with a Replicate_1 under setting [7] of 4.518. Moreover, under setting [8], the Replicate_2 stood at 4.126.
For `CCCN1CCc2cccc3c2[C@H]1Cc1ccc(O)c(O)c1-3.Cl` [R(-)-Propylnorapomorphine hydrochloride], the “mean (LOPAC screen with protease)” value (sheet LOPAC_screen_w_protease, primary screen at 5 µM, mean of two replicates) was determined as 100.867. Further, the “Replicate_1 (LOPAC screen with protease)” value (sheet LOPAC_screen_w_protease, primary screen at 5 µM, replicate 1) was 101.086. In addition, the “Replicate_2 (LOPAC screen with protease)” value (sheet LOPAC_screen_w_protease, primary screen at 5 µM, replicate 2) is 100.647.
Take `CS(=O)(=O)Nc1ccc([N+](=O)[O-])cc1Oc1ccccc1` [Nimesulide]: the inhibition at 5 µM was 4.73% (read-out: Replicate_1), 4.45% (read-out: Replicate_2) and 4.59% (read-out: mean).
Take `O=C(O)/C=C\C(=O)O.O=C(O)/C=C\C(=O)O.c1cc(CN2CCCCC2)cc(OCCCNc2nc3ccccc3s2)c1` [SKF 95282 dimaleate]: the mean under setting [9] was found to be 0.9471. This molecule also gave a Replicate_1 under setting [10] of 0.9833. Further, under setting [11], the Replicate_2 is given as 0.911.
For the molecule `CCN(CC)CC#CCOC(=O)C(O)(c1ccccc1)C1CCCCC1` (stereo not drawn) [Oxybutynin Chloride], the inhibition at 5 µM was 4.78% (sheet LOPAC_screen_w_protease, LOPAC1280 primary screen with protease, 5 µM compound, mean of the two replicates, read-out: mean); 4.91% (sheet LOPAC_screen_w_protease, LOPAC1280 primary screen with protease, 5 µM compound, replicate 1, read-out: Replicate_1); 4.65% (sheet LOPAC_screen_w_protease, LOPAC1280 primary screen with protease, 5 µM compound, replicate 2, read-out: Replicate_2).
Turning to `Cc1nc2ccccn2c(=O)c1CCN1CCC(C(=O)c2ccc(F)cc2)CC1` [Pirenperone], the inhibition at 5 µM runs as follows: (sheet LOPAC_screen_w_protease, LOPAC1280 primary screen at 5 µM, with protease, mean of the two replicates, read-out: mean) 0.688%; (sheet LOPAC_screen_w_protease, LOPAC1280 primary screen at 5 µM, with protease, replicate 1, read-out: Replicate_1) 0.852%; (sheet LOPAC_screen_w_protease, LOPAC1280 primary screen at 5 µM, with protease, replicate 2, read-out: Replicate_2) 0.525%.
For the molecule `CN1C[C@H](O)[C@@H](O)[C@H](O)[C@H]1CO` [N-Methyl-1-deoxynojirimycin], the mean under setting [6] is 4.2727. The Replicate_1 under setting [7] is given as 3.9484. The molecule also had a Replicate_2 under setting [8] of 4.597.
As to `CN(C)CCCC1(c2ccc(F)cc2)OCc2cc(C#N)ccc21` (stereo not drawn) [Citalopram hydrobromide], the inhibition at 5 µM under setting [1] was 1.26%, the inhibition at 5 µM under setting [2] turned out to be 1.98% and the inhibition at 5 µM under setting [3] was 0.536%.
As to `CC(C)(C)NCC(O)COc1cccc2[nH]c(=O)[nH]c12.Cl` (racemic) [(±)-CGP-12177A hydrochloride], the mean under setting [9] is given as 1.308. The same molecule showed a Replicate_1 under setting [10] of 3.897. Under setting [11], this molecule showed a Replicate_2 of -1.282.
Consider `COc1ccc(C(=O)N2CCCC2=O)cc1` [Aniracetam], for which the inhibition at 5 µM turned out to be 6.69% (sheet LOPAC_screen_w_protease, primary screen at 5 µM, mean of two replicates, read-out: mean (LOPAC screen with protease)); 9.93% (sheet LOPAC_screen_w_protease, primary screen at 5 µM, replicate 1, read-out: Replicate_1 (LOPAC screen with protease)); 3.46% (sheet LOPAC_screen_w_protease, primary screen at 5 µM, replicate 2, read-out: Replicate_2 (LOPAC screen with protease)).
Turning to `Cl.NOCC(=O)O.NOCC(=O)O`, under setting [9], the mean was 1.195. This molecule also had a Replicate_1 under setting [10] of 1.0596. This molecule also came in with a Replicate_2 under setting [11] of 1.33.
As for `COc1cccc2c1[C@@H]1CN(CCCCn3c(=O)[nH]c4c(sc5ncc(-c6ccccc6)nc54)c3=O)C[C@@H]1CO2` [Fiduxosin hydrochloride], the inhibition at 5 µM runs as follows: (sheet LOPAC_screen_w_protease, primary screen of LOPAC1280 at 5 µM with protease, mean of the two replicates, read-out: mean) 3.27%; (sheet LOPAC_screen_w_protease, primary screen of LOPAC1280 at 5 µM with protease, replicate 1, read-out: Replicate_1) 3.54%; (sheet LOPAC_screen_w_protease, primary screen of LOPAC1280 at 5 µM with protease, replicate 2, read-out: Replicate_2) 3.01%.
In the case of `CC(C)NCC(O)COc1cccc2[nH]ccc12` (stereo not drawn) [S(-)-Pindolol], the “mean (LOPAC_screen_w_protease)” value (LOPAC1280 primary screen with protease, 5 µM compound, mean of the two replicates) was found to be 1.809. Besides, the “Replicate_1 (LOPAC_screen_w_protease)” value under setting [4] was determined as 1.519. In addition, the “Replicate_2 (LOPAC_screen_w_protease)” value under setting [5] was determined as 2.1. Where the note is “sheet LOPAC_screen_w_protease, primary screen with protease, 5 µM, mean of two replicates”, this molecule showed a mean of 0.4162. In addition, the Replicate_1 (sheet LOPAC_screen_w_protease, primary screen with protease, 5 µM, replicate 1) is listed as 1.799. This molecule registered a Replicate_2 (sheet LOPAC_screen_w_protease, primary screen with protease, 5 µM, replicate 2) of -0.9667.
Turning to `C[N+]1(C)CCOC(O)(c2ccc(-c3ccc(C4(O)C[N+](C)(C)CCO4)cc3)cc2)C1` (stereo not drawn) [Hemicholinium-3], the inhibition at 5 µM is, setting by setting: (sheet LOPAC_screen_w_protease, primary screen with protease, compound at 5 µM, mean of two replicates, read-out: mean) 2.72%; (sheet LOPAC_screen_w_protease, primary screen with protease, compound at 5 µM, replicate 1, read-out: Replicate_1) 4.37%; (sheet LOPAC_screen_w_protease, primary screen with protease, compound at 5 µM, replicate 2, read-out: Replicate_2) 1.08%.
In the case of `N=C(N)SCCc1cnc[nH]1` [Imetit dihydrobromide], the inhibition at 5 µM (sheet LOPAC_screen_w_protease, primary screen with protease, mean of two replicates, read-out: mean) stood at 2.25%; the inhibition at 5 µM (sheet LOPAC_screen_w_protease, primary screen with protease, replicate 1, read-out: Replicate_1) amounted to 1.12%; the inhibition at 5 µM (sheet LOPAC_screen_w_protease, primary screen with protease, replicate 2, read-out: Replicate_2) was found to be 3.38%.
As for `CSc1ccc2c(c1)N(CCC1CCCCN1C)c1ccccc1S2` (stereo not drawn) [Thioridazine hydrochloride], the inhibition at 5 µM came out at 0.0861% (read-out: Replicate_1), 0.816% (read-out: Replicate_2) and 0.451% (read-out: mean).
In the case of `CC(C)(C)c1o[nH]c(=O)c1CC(N)C(=O)O` (stereo not drawn) [ATPA], the mean (sheet LOPAC_screen_w_protease, LOPAC1280 primary screen at 5 µM, with protease, mean of the two replicates) was 0.4603. The molecule also registered a Replicate_1 (sheet LOPAC_screen_w_protease, LOPAC1280 primary screen at 5 µM, with protease, replicate 1) of -0.08438. Further, the Replicate_2 (sheet LOPAC_screen_w_protease, LOPAC1280 primary screen at 5 µM, with protease, replicate 2) stood at 1.005.
Consider `O=C(O)C1CN(CCCP(=O)(O)O)CCN1` (racemic) [(±)-CPP], for which the mean under setting [6] was found to be 4.122. Under setting [7], this molecule yielded a Replicate_1 of 5.3739. For the same molecule, under setting [8], the Replicate_2 was 2.869.
Regarding `N=C(N)N/N=C/c1c(Cl)cccc1Cl` [Guanabenz acetate], the inhibition at 5 µM is 1.09% under setting [1], 2.57% under setting [2] and -0.398% under setting [3].
As for `COC(=O)C(C)(N)Cc1ccc(O)cc1.Cl` (racemic), the mean (sheet LOPAC_screen_w_protease, primary screen with protease, compound at 5 µM, mean of two replicates) came out at 2.971. The same molecule yielded a Replicate_1 (sheet LOPAC_screen_w_protease, primary screen with protease, compound at 5 µM, replicate 1) of 4.293. Under “sheet LOPAC_screen_w_protease, primary screen with protease, compound at 5 µM, replicate 2”, this molecule showed a Replicate_2 of 1.648.

The values are drawn from article PMC7587356, “High-Throughput Screening for Inhibitors of the SARS-CoV-2 Protease Using a FRET-Biosensor” (Molecules, 2020).
